From patent US6525001B1, “Substituted pyrimidine and pyridine herbicides” (Mid-American Commercialization Corporation, priority 1997, dated 2003)

Legend:
Format in all cases: in vivo
Parameters in all cases: key: 0 is no effect; 10 is complete control
[1] = tested on: wild oat (Avena fatua); assay: Test B pre-/postemergence
Method in brief: (§1)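 Scored visually 0 (none) to 10 (complete control) against untreated plants after twelve to sixteen greenhouse days. Test chemicals, formulated in surfactant-containing non-phytotoxic solvent, applied to soil after planting and, separately, onto 1- to 4-leaf (2–18 cm) plants.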

[2] = tested on: blackgrass (Alopecurus myosuroides); assay: Test B pre-/postemergence
Method in brief: as §1

[3] = tested on: rice (Oryza sativa); assay: Test B flood test; conditions: for Plant response rating, Rice: Postemergence (flood test species)
Method in brief: (§2)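 Flood test on plants grown to the 2-leaf stage; treated plants kept in greenhouse twelve to sixteen days, then visually rated against controls on a 0 (no effect) to 10 (complete control) scale.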

[4] = tested on: bamyardgrass (Echinochloa crus-galli); assay: Test B flood test; conditions: for Plant response rating, Barnyardgrass: Postemergence (flood test species)
Method in brief: as §2

[5] = tested on: duck salad (Heteranthera limosa); assay: Test B flood test; conditions: for Plant response rating, Ducksalad: Postemergence (flood test species)
Method in brief: as §2

[6] = tested on: smallflower flatsedge (Cyperus difformis); assay: Test B flood test; conditions: for Plant response rating, S. Flatsedge: Postemergence (flood test species)
Method in brief: as §2

[7] = Preemergence, Rate 62 g/ha, scale of 0 to 10
[8] = Rate 62 g/ha, Postemergence (flood test)
[9] = Rate 125 g/ha, Postemergence section (flood test species)

SMILES: Cc1cnc(-n2ccc(C(F)(F)F)n2)nc1C(=O)c1ccc(C(F)(F)F)cc1 [Compound 65]
- Plant response rating, Wild oats [1, 7]: 0
- Wild oats plant response rating ([1]; Rate 62 g/ha, Postemergence): 1
- Wild oats plant response rating ([1]; Rate 125 g/ha, Postemergence): 1
- Plant response rating, Wild oats ([1]; Rate 125 g/ha, Preemergence): 0
- Plant response rating, Wild oats ([1]; Rate 250 g/ha, Postemergence): 1
- Plant response rating, Wild oats ([1]; Rate 250 g/ha, Preemergence): 0
- Plant response rating, Wild oats ([1]; Rate 500 g/ha, Postemergence): 1
- Plant response rating, Wild oats ([1]; Rate 500 g/ha, Preemergence): 0
- Plant response rating, Blackgrass [2, 7]: 0
- Blackgrass plant response rating ([2]; Rate 62 g/ha, Postemergence): 0
- Blackgrass plant response rating ([2]; Rate 125 g/ha, Postemergence): 0
- Plant response rating, Blackgrass ([2]; Rate 125 g/ha, Preemergence): 0
- Plant response rating, Blackgrass ([2]; Rate 250 g/ha, Postemergence): 0
- Plant response rating, Blackgrass ([2]; Rate 250 g/ha, Preemergence): 0
- Plant response rating, Blackgrass ([2]; Rate 500 g/ha, Postemergence): 0
- Plant response rating, Blackgrass ([2]; Rate 500 g/ha, Preemergence): 0
- Rice plant response rating [3, 8]: 0
- Rice plant response rating [3, 9]: 0
- Plant response rating, Rice ([3]; Rate 250 g/ha): 0
- Plant response rating, Rice ([3]; Rate 500 g/ha): 0
- Barnyardgrass plant response rating [4, 8]: 0
- Barnyardgrass plant response rating [4, 9]: 0
- Plant response rating, Barnyardgrass ([4]; Rate 250 g/ha): 0
- Plant response rating, Barnyardgrass ([4]; Rate 500 g/ha): 0
- Ducksalad plant response rating [5, 8]: 0
- Ducksalad plant response rating [5, 9]: 0
- Plant response rating, Ducksalad ([5]; Rate 250 g/ha): 0
- Plant response rating, Ducksalad ([5]; Rate 500 g/ha): 0
- S. Flatsedge plant response rating [6, 8]: 0
- S. Flatsedge plant response rating [6, 9]: 0
- Plant response rating, S. Flatsedge ([6]; Rate 250 g/ha): 0
- Plant response rating, S. Flatsedge ([6]; Rate 500 g/ha): 0

SMILES: Cc1cnc(-n2ccc(C(F)(F)C(F)(F)F)n2)nc1C(=O)c1cccc(C(F)(F)F)c1 [Compound 68]
- Plant response rating, Wild oats [1, 7]: 4
- Wild oats plant response rating ([1]; Rate 62 g/ha, Postemergence): 2
- Wild oats plant response rating ([1]; Rate 125 g/ha, Postemergence): 2
- Plant response rating, Wild oats ([1]; Rate 125 g/ha, Preemergence): 6
- Plant response rating, Wild oats ([1]; Rate 250 g/ha, Postemergence): 2
- Plant response rating, Wild oats ([1]; Rate 250 g/ha, Preemergence): 7
- Plant response rating, Wild oats ([1]; Rate 500 g/ha, Postemergence): 3
- Plant response rating, Wild oats ([1]; Rate 500 g/ha, Preemergence): 8
- Plant response rating, Blackgrass [2, 7]: 3
- Blackgrass plant response rating ([2]; Rate 62 g/ha, Postemergence): 2
- Blackgrass plant response rating ([2]; Rate 125 g/ha, Postemergence): 3
- Plant response rating, Blackgrass ([2]; Rate 125 g/ha, Preemergence): 5
- Plant response rating, Blackgrass ([2]; Rate 250 g/ha, Postemergence): 4
- Plant response rating, Blackgrass ([2]; Rate 250 g/ha, Preemergence): 7
- Plant response rating, Blackgrass ([2]; Rate 500 g/ha, Postemergence): 5
- Plant response rating, Blackgrass ([2]; Rate 500 g/ha, Preemergence): 7
- Rice plant response rating [3, 8]: 0
- Rice plant response rating [3, 9]: 1
- Plant response rating, Rice ([3]; Rate 250 g/ha): 3
- Plant response rating, Rice ([3]; Rate 500 g/ha): 3
- Barnyardgrass plant response rating [4, 8]: 2
- Barnyardgrass plant response rating [4, 9]: 3
- Plant response rating, Barnyardgrass ([4]; Rate 250 g/ha): 4
- Plant response rating, Barnyardgrass ([4]; Rate 500 g/ha): 4
- Ducksalad plant response rating [5, 8]: 0
- Ducksalad plant response rating [5, 9]: 1
- Plant response rating, Ducksalad ([5]; Rate 250 g/ha): 2
- Plant response rating, Ducksalad ([5]; Rate 500 g/ha): 3
- S. Flatsedge plant response rating [6, 8]: 5
- S. Flatsedge plant response rating [6, 9]: 7
- Plant response rating, S. Flatsedge ([6]; Rate 250 g/ha): 7
- Plant response rating, S. Flatsedge ([6]; Rate 500 g/ha): 7

SMILES: Cc1cnc(-c2ccc(C(F)(F)F)cc2)nc1C(=O)c1cccc(C(F)(F)F)c1 [Compound 73]
- Plant response rating, Wild oats [1, 7]: 7
- Wild oats plant response rating ([1]; Rate 62 g/ha, Postemergence): 6
- Wild oats plant response rating ([1]; Rate 125 g/ha, Postemergence): 7
- Plant response rating, Wild oats ([1]; Rate 125 g/ha, Preemergence): 9
- Plant response rating, Wild oats ([1]; Rate 250 g/ha, Postemergence): 9
- Plant response rating, Wild oats ([1]; Rate 250 g/ha, Preemergence): 10
- Plant response rating, Wild oats ([1]; Rate 500 g/ha, Postemergence): 9
- Plant response rating, Wild oats ([1]; Rate 500 g/ha, Preemergence): 10
- Plant response rating, Blackgrass [2, 7]: 8
- Blackgrass plant response rating ([2]; Rate 62 g/ha, Postemergence): 7
- Blackgrass plant response rating ([2]; Rate 125 g/ha, Postemergence): 7
- Plant response rating, Blackgrass ([2]; Rate 125 g/ha, Preemergence): 9
- Plant response rating, Blackgrass ([2]; Rate 250 g/ha, Postemergence): 9
- Plant response rating, Blackgrass ([2]; Rate 250 g/ha, Preemergence): 10
- Plant response rating, Blackgrass ([2]; Rate 500 g/ha, Postemergence): 9
- Plant response rating, Blackgrass ([2]; Rate 500 g/ha, Preemergence): 10
- Rice plant response rating [3, 8]: 5
- Rice plant response rating [3, 9]: 5
- Plant response rating, Rice ([3]; Rate 250 g/ha): 6
- Plant response rating, Rice ([3]; Rate 500 g/ha): 3
- Barnyardgrass plant response rating [4, 8]: 4
- Barnyardgrass plant response rating [4, 9]: 5
- Plant response rating, Barnyardgrass ([4]; Rate 250 g/ha): 6
- Plant response rating, Barnyardgrass ([4]; Rate 500 g/ha): 4
- Ducksalad plant response rating [5, 8]: 1
- Ducksalad plant response rating [5, 9]: 1
- Plant response rating, Ducksalad ([5]; Rate 250 g/ha): 2
- Plant response rating, Ducksalad ([5]; Rate 500 g/ha): 3
- S. Flatsedge plant response rating [6, 8]: 3
- S. Flatsedge plant response rating [6, 9]: 3
- Plant response rating, S. Flatsedge ([6]; Rate 250 g/ha): 6
- Plant response rating, S. Flatsedge ([6]; Rate 500 g/ha): 3

SMILES: Cc1cnc(-c2ccc(C(F)(F)F)cc2)nc1C(=O)c1ccc(C(F)(F)F)cc1 [Compound 74]
- Plant response rating, Wild oats [1, 7]: 0
- Wild oats plant response rating ([1]; Rate 62 g/ha, Postemergence): 1
- Wild oats plant response rating ([1]; Rate 125 g/ha, Postemergence): 1
- Plant response rating, Wild oats ([1]; Rate 125 g/ha, Preemergence): 0
- Plant response rating, Wild oats ([1]; Rate 250 g/ha, Postemergence): 1
- Plant response rating, Wild oats ([1]; Rate 250 g/ha, Preemergence): 0
- Plant response rating, Wild oats ([1]; Rate 500 g/ha, Postemergence): 1
- Plant response rating, Wild oats ([1]; Rate 500 g/ha, Preemergence): 0
- Plant response rating, Blackgrass [2, 7]: 0
- Blackgrass plant response rating ([2]; Rate 62 g/ha, Postemergence): 0
- Blackgrass plant response rating ([2]; Rate 125 g/ha, Postemergence): 0
- Plant response rating, Blackgrass ([2]; Rate 125 g/ha, Preemergence): 0
- Plant response rating, Blackgrass ([2]; Rate 250 g/ha, Postemergence): 0
- Plant response rating, Blackgrass ([2]; Rate 250 g/ha, Preemergence): 0
- Plant response rating, Blackgrass ([2]; Rate 500 g/ha, Postemergence): 1
- Plant response rating, Blackgrass ([2]; Rate 500 g/ha, Preemergence): 0
- Rice plant response rating [3, 8]: 0
- Rice plant response rating [3, 9]: 0
- Plant response rating, Rice ([3]; Rate 250 g/ha): 0
- Plant response rating, Rice ([3]; Rate 500 g/ha): 0
- Barnyardgrass plant response rating [4, 8]: 0
- Barnyardgrass plant response rating [4, 9]: 0
- Plant response rating, Barnyardgrass ([4]; Rate 250 g/ha): 0
- Plant response rating, Barnyardgrass ([4]; Rate 500 g/ha): 0
- Ducksalad plant response rating [5, 8]: 0
- Ducksalad plant response rating [5, 9]: 0
- Plant response rating, Ducksalad ([5]; Rate 250 g/ha): 0
- Plant response rating, Ducksalad ([5]; Rate 500 g/ha): 0
- S. Flatsedge plant response rating [6, 8]: 0
- S. Flatsedge plant response rating [6, 9]: 0
- Plant response rating, S. Flatsedge ([6]; Rate 250 g/ha): 0
- Plant response rating, S. Flatsedge ([6]; Rate 500 g/ha): 0

SMILES: Cc1cnc(-c2ccc(C(F)(F)F)cc2)nc1C(=O)c1cccc(OC(F)(F)F)c1 [Compound 75]
- Plant response rating, Wild oats [1, 7]: 5
- Wild oats plant response rating ([1]; Rate 62 g/ha, Postemergence): 3
- Wild oats plant response rating ([1]; Rate 125 g/ha, Postemergence): 3
- Plant response rating, Wild oats ([1]; Rate 125 g/ha, Preemergence): 7
- Plant response rating, Wild oats ([1]; Rate 250 g/ha, Postemergence): 3
- Plant response rating, Wild oats ([1]; Rate 250 g/ha, Preemergence): 7
- Plant response rating, Wild oats ([1]; Rate 500 g/ha, Preemergence): 9
- Plant response rating, Blackgrass [2, 7]: 3
- Blackgrass plant response rating ([2]; Rate 62 g/ha, Postemergence): 3
- Blackgrass plant response rating ([2]; Rate 125 g/ha, Postemergence): 6
- Plant response rating, Blackgrass ([2]; Rate 125 g/ha, Preemergence): 8
- Plant response rating, Blackgrass ([2]; Rate 250 g/ha, Postemergence): 8
- Plant response rating, Blackgrass ([2]; Rate 250 g/ha, Preemergence): 9
- Plant response rating, Blackgrass ([2]; Rate 500 g/ha, Preemergence): 10
- Rice plant response rating [3, 8]: 1
- Rice plant response rating [3, 9]: 1
- Plant response rating, Rice ([3]; Rate 250 g/ha): 1
- Barnyardgrass plant response rating [4, 8]: 2
- Barnyardgrass plant response rating [4, 9]: 2
- Plant response rating, Barnyardgrass ([4]; Rate 250 g/ha): 3
- Ducksalad plant response rating [5, 8]: 0
- Ducksalad plant response rating [5, 9]: 1
- Plant response rating, Ducksalad ([5]; Rate 250 g/ha): 2
- S. Flatsedge plant response rating [6, 8]: 0
- S. Flatsedge plant response rating [6, 9]: 0
- Plant response rating, S. Flatsedge ([6]; Rate 250 g/ha): 1
